# Measured values reported in patent publication US7612205B2, “Crystals of quinolinecarboxylic acid derivative solvate” (Nippon Shinyaku Co., Ltd., priority 2003, dated 2009).
# Where two headings read alike, the source gives them in different places.
# Tests used:
# [1] = Investigation on solvent for crystallization: whether Compound A is dissolved in a solvent; type: physicochemical; details: organic solvent or mixture, thermodynamic from solid, 3 ml solvent to 50 mg
# Procedure: (1) By adding 3 ml of a solvent to 50 mg of Compound A, it was investigated whether Compound A is dissolved or not.
# (§1) The results of the (1) described above are shown in the column of *1 of Table 2 and the results of the (2) described above are shown in the column of *2 of Table 2.
# [2] = Stability of Compound A in a solvent by high-performance liquid chromatography; type: physicochemical; parameters: key to Chemical stability (*2): ◯: the one that did not have a peak other than that of Compound A (there is no degradation product); X: the one that had a peak other than that of Compound A (there is a degradation product); details: 50° C. for 1000 minutes, HPLC; for Chemical stability (*2): 2-fold volume
# Procedure: (2) In order to investigate the stability of Compound A in a solvent, a 2-fold volume (the volume of a solvent (ml)/the weight of a dissolved substance (g)) of a solvent was added to Compound A, the mixture was maintained at 50° C. for 1000 minutes, and then the stability of the compound was investigated by high-performance liquid chromatography.
# as §1
# [3] = acetonitrile, in terms of the desolvate
# Description: In the present invention, the term “supersaturation concentration: Cx (g/100 g)” means the degree of supersaturation state and it is represented by the following formula. Cx=C−Cs
# Where, C (g/100 g) indicates the mass (in terms of the desolvate) of Compound B dissolved in 100 g of a solvent.
# Cs (g/100 g) indicates the saturation solubility (in terms of the desolvate) of Compound B dissolved in 100 g of a solvent under the temperature at the time of occurrence of spontaneous nucleation or addition of seed crystal.
# A predetermined amount of Compound A was dissolved in a predetermined amount of acetonitrile, crystallization was carried out at various supersaturation concentrations, and the obtained crystals were analyzed with a powder X-ray diffractometer.
# [4] = in acetonitrile, stirred for 30 minutes
# Procedure: In the present invention, the term “solvent mediated transformation” means transformation of a crystal into another crystal form in the presence of a solvent. For example, it means that at a predetermined temperature, the crystal of Compound B is transformed into the type I crystal of Compound A in a solvent.
# The crystal of Compound B was added to acetonitrile in an amount of not less than the supersaturation concentration at a predetermined temperature (in a state where not all the added crystals are dissolved and some crystals are present), stirred for 30 minutes, and then the crystal was filtered and measured with a powder X-ray diffractometer.
compound,measurement,setting,value
"Cc1oc(=O)oc1CN1CCN(c2cc3c(cc2F)c(=O)c(C(=O)O)c2n3C(C)S2)CC1 (stereo not drawn) [Compound A, 6-fluoro-1-methyl-7-[4-(5-methyl-2-oxo-1,3-dioxolen-4-yl)-methyl-1-piperazinyl]-4-oxo-4H-[1,3]thiazeto[3,2-a]quinoline-3-carboxylic acid]",solubility,[1]; solvent 1-butanol,≤ 16.7 mg/mL
same,solubility,"[1]; solvent 2-ethoxy ethanol, read-out: Solubility (*1)",≥ 16.7 mg/mL
same,solubility,"[1]; solvent 2-propanol, read-out: Solubility (*1)",≤ 16.7 mg/mL
same,solubility,"[1]; solvent N,N-dimethylformamide, read-out: Solubility (*1)",> 16.7 mg/mL
same,solubility,"[1]; solvent acetic acid, read-out: Solubility (*1)",> 16.7 mg/mL
same,solubility,"[1]; solvent acetic anhydride, read-out: Solubility (*1)",≥ 16.7 mg/mL
same,solubility,"[1]; solvent acetone, read-out: Solubility (*1)",≤ 16.7 mg/mL
same,solubility,"[1]; solvent acetonitrile, read-out: Solubility (*1)",≥ 16.7 mg/mL
same,solubility,"[1]; solvent aniline, read-out: Solubility (*1)",> 16.7 mg/mL
same,solubility,"[1]; solvent benzene, read-out: Solubility (*1)",≤ 16.7 mg/mL
same,solubility,"[1]; solvent carbon tetrachloride, read-out: Solubility (*1)",≤ 16.7 mg/mL
same,solubility,"[1]; solvent chloroacetonitrile, read-out: Solubility (*1)",> 16.7 mg/mL
same,solubility,"[1]; solvent chloroform, read-out: Solubility (*1)",≤ 16.7 mg/mL
same,solubility,"[1]; solvent cresol, read-out: Solubility (*1)",≤ 16.7 mg/mL
same,solubility,"[1]; solvent dibutyl ether, read-out: Solubility (*1)",≤ 16.7 mg/mL
same,solubility,"[1]; solvent diisopropyl ether, read-out: Solubility (*1)",≤ 16.7 mg/mL
same,solubility,"[1]; solvent dioxane, read-out: Solubility (*1)",≤ 16.7 mg/mL
same,solubility,"[1]; solvent diphenyl ether, read-out: Solubility (*1)",≤ 16.7 mg/mL
same,solubility,"[1]; solvent ethanol, read-out: Solubility (*1)",≤ 16.7 mg/mL
same,solubility,"[1]; solvent ethyl acetate, read-out: Solubility (*1)",≤ 16.7 mg/mL
same,solubility,"[1]; solvent formamide, read-out: Solubility (*1)",≤ 16.7 mg/mL
same,solubility,"[1]; solvent formic acid, read-out: Solubility (*1)",> 16.7 mg/mL
same,solubility,"[1]; solvent glycerin, read-out: Solubility (*1)",≤ 16.7 mg/mL
same,solubility,"[1]; solvent heptane, read-out: Solubility (*1)",≤ 16.7 mg/mL
same,solubility,"[1]; solvent hexane, read-out: Solubility (*1)",≤ 16.7 mg/mL
same,solubility,"[1]; solvent isobutyl alcohol, read-out: Solubility (*1)",≤ 16.7 mg/mL
same,solubility,"[1]; solvent isopropyl acetate, read-out: Solubility (*1)",≤ 16.7 mg/mL
same,solubility,"[1]; solvent ligroin, read-out: Solubility (*1)",≤ 16.7 mg/mL
same,solubility,"[1]; solvent methanol, read-out: Solubility (*1)",≤ 16.7 mg/mL
same,solubility,"[1]; solvent methyl acetate, read-out: Solubility (*1)",≤ 16.7 mg/mL
same,solubility,"[1]; solvent methyl ethyl ketone, read-out: Solubility (*1)",≤ 16.7 mg/mL
same,solubility,"[1]; solvent methylcyclohexane, read-out: Solubility (*1)",≤ 16.7 mg/mL
same,solubility,"[1]; solvent nitromethane, read-out: Solubility (*1)",> 16.7 mg/mL
same,solubility,"[1]; solvent p-cymene, read-out: Solubility (*1)",≤ 16.7 mg/mL
same,solubility,"[1]; solvent petroleum ether, read-out: Solubility (*1)",≤ 16.7 mg/mL
same,solubility,"[1]; solvent phenol, read-out: Solubility (*1)",≥ 16.7 mg/mL
same,solubility,"[1]; solvent pyridine, read-out: Solubility (*1)",> 16.7 mg/mL
same,solubility,"[1]; solvent tetrachloroethylene, read-out: Solubility (*1)",≤ 16.7 mg/mL
same,solubility,"[1]; solvent tetrahydrofuran, read-out: Solubility (*1)",≤ 16.7 mg/mL
same,solubility,"[1]; solvent toluene, read-out: Solubility (*1)",≤ 16.7 mg/mL
same,solubility,"[1]; solvent trichloroethylene, read-out: Solubility (*1)",≤ 16.7 mg/mL
same,solubility,"[1]; solvent xylene, read-out: Solubility (*1)",≤ 16.7 mg/mL
same,degradation product in solvent,"[2]; formic acid, acetic acid and aniline",a degradation product of Compound A was observed
same,Chemical stability (*2),[2]; solvent 2-ethoxy ethanol,X
same,Chemical stability (*2),[2]; solvent acetic acid,X
same,Chemical stability (*2),[2]; solvent acetic anhydride,X
same,Chemical stability (*2),[2]; solvent acetonitrile,◯
same,Chemical stability (*2),[2]; solvent aniline,X
same,Chemical stability (*2),[2]; solvent formic acid,X
same,Chemical stability (*2),[2]; solvent methanol,X
same,Chemical stability (*2),[2]; solvent phenol,X
"CC#N.Cc1oc(=O)oc1CN1CCN(c2cc3c(cc2F)c(=O)c(C(=O)O)c2n3C(C)S2)CC1 (stereo not drawn) [Compound B, 6-fluoro-1-methyl-7-[4-(5-methyl-2-oxo-1,3-dioxolen-4-yl)-methyl-1-piperazinyl]-4-oxo-4H-[1,3]thiazeto[3,2-a]quinoline-3-carboxylic acid acetonitrile solvate]",Solubility at the time of occurrence of spontaneous nucleation or addition of seed crystals (Cs),[3]; 0 ° C.,0.07 g/100 g
same,Solubility at the time of occurrence of spontaneous nucleation or addition of seed crystals (Cs),[3]; 14.3 ° C.,0.16 g/100 g
same,Solubility at the time of occurrence of spontaneous nucleation or addition of seed crystals (Cs),[3]; 17 ° C.,0.19 g/100 g
same,Solubility at the time of occurrence of spontaneous nucleation or addition of seed crystals (Cs),[3]; 25 ° C.,0.29 g/100 g
same,Solubility at the time of occurrence of spontaneous nucleation or addition of seed crystals (Cs),[3]; 27 ° C.,0.32 g/100 g
same,Solubility at the time of occurrence of spontaneous nucleation or addition of seed crystals (Cs),[3]; 30 ° C.,0.38 g/100 g
same,Solubility at the time of occurrence of spontaneous nucleation or addition of seed crystals (Cs),[3]; 45 ° C.,0.79 g/100 g
same,Solubility at the time of occurrence of spontaneous nucleation or addition of seed crystals (Cs),[3]; 50 ° C.,1.00 g/100 g
same,Solubility at the time of occurrence of spontaneous nucleation or addition of seed crystals (Cs),[3]; 55 ° C.,1.25 g/100 g
same,Solubility at the time of occurrence of spontaneous nucleation or addition of seed crystals (Cs),[3]; 65 ° C.,1.92 g/100 g
same,Solubility at the time of occurrence of spontaneous nucleation or addition of seed crystals (Cs),[3]; 70 ° C.,2.36 g/100 g
same,Crystal form,[4]; 25 ° C.,Not changed
same,Crystal form,[4]; 40 ° C.,Not changed
same,Crystal form,[4]; 55 ° C.,Not changed
same,Crystal form,[4]; 67 ° C.,Not changed
